Laboratory results: ChEMBL document CHEMBL3046128, “Sustainable synthesis of flavonoid derivatives, QSAR study and insecticidal activity against the fall armyworm, Spodoptera frugiperda (Lep.: Noctuidae)” (2010)

Test system: Spodoptera frugiperda
Assay: Insecticidal activity against first-instar larval-stage of Spodoptera frugiperda (fall armyworm) strain corn in compound-pretreated corn leaves assessed as mortality rate at 2000 mg/kg
Format: functional

Work on O=c1ccoc2ccccc12 [CHROMONE] yielded an LT50 of 55.42 h and a log10LT50 of 1.744.
In the case of O=c1c2ccccc2oc2ccccc12 [XANTHONE], the LT50 is reported as 53.78 h and the log10LT50 is reported as 1.731.
In the case of O=c1cc(-c2ccccc2)oc2cc(Br)ccc12 [7-BROMOFLAVONE], the LT50 is reported as 89.73 h and the log10LT50 is reported as 1.953.
O=c1cc(-c2ccccc2)oc2ccc(Cl)cc12 [6-CHLOROFLAVONE] showed an LT50 of 53.36 h and a log10LT50 of 1.727.
Work on O=c1cc(-c2ccccc2)oc2ccc(Br)cc12 [6-BROMOFLAVONE] yielded an LT50 of 43.86 h and a log10LT50 of 1.642.
For O=c1cc(-c2ccccc2)oc2ccccc12 [FLAVONE], the LT50 was 51.19 h and the log10LT50 was 1.709.
Work on O=c1cc(-c2ccccc2)oc2cc(O)ccc12 [7-HYDROXYFLAVONE] yielded an LT50 of 106.94 h and a log10LT50 of 2.029.
With O=c1cc(-c2ccccc2)oc2cc(Cl)ccc12 [7-CHLOROFLAVONE] the LT50 was 29.33 h and the log10LT50 was 1.467.
Compound Cc1ccc2oc(-c3ccccc3)cc(=O)c2c1 [6-METHYLFLAVONE] has an LT50 of 93 h and a log10LT50 of 1.968.
With COc1ccc2c(=O)cc(-c3ccccc3)oc2c1 [7-METHOXYFLAVONE] the LT50 was 114.38 h and the log10LT50 was 2.058.
O=C1CC(c2ccccc2)Oc2ccccc21 (stereo not given) [FLAVANONE] was tested, and the log10LT50 was 1.656.
In the case of O=c1cc(-c2ccccc2)oc2cc(F)ccc12 [7-FLUOROFLAVONE], the LT50 is reported as 63.76 h and the log10LT50 is reported as 1.805.
In the case of Cc1ccc2c(=O)cc(-c3ccccc3)oc2c1 [7-METHYLFLAVONE], the LT50 is reported as 105.46 h and the log10LT50 is reported as 2.023.
